System: Salmonella outer membrane
Assay: Outer membrane permeabilization (NPN fluorescence)
Assay type: cell-based, Salmonella enterica serovar Typhimurium strain SL1344
Settings: KFF-ASOs 10 µM, CTAB 10 µM, PMXB 0.4 µM; added after 14 min
Text: Because the negASOs are ineffective in bacterial cells despite their activity in cell-free systems, we investigated if these ASOs affected the ability of the KFF carrier peptide to induce OM permeabilization. Therefore, we used the hydrophobic fluorophore N-phenylnaphthylamine (NPN), a dye that turns fluorescent after binding to hydrophobic regions within cell membranes. This only occurs in cells with a compromised OM ([Ghosh et al. 2016]; [Ellis et al. 2019]). […] However, when conjugated to negASOs, the KFF carrier is unable to permeabilize the OM (Fig. 10). This could potentially be due to electrostatic interactions between the negASOs and the positively charged KFF.
The experiments were performed by modifying previously published protocols ([Ghosh et al. 2016]; [Ellis et al. 2019]; [Zheng et al. 2021]). Salmonella (WT SL1344, JVS-1574) were grown overnight in 4 mL MHB medium at 37°C (with shaking at 220 rpm). Then the culture was diluted 1:100 and grown until OD600 0.5 (∼2 × 10^8 cfu/mL). This culture was harvested and washed two times with 5 mM HEPES and further diluted to OD600 0.2 in 5 mM HEPES supplemented with 5 mM Glucose (pH 7.2). These cells were then incubated with NPN (Sigma) at a final concentration of 10 µM. One hundred and ninety microliters of NPN-treated cells were transferred into 96-well back plates with transparent bottoms and fluorescence (excitation = 350 nm, emission = 420 nm) was recorded for 60 min (reading was performed every minute) using a Synergy H1 plate reader (Biotek). On the 14th minute, 10 µL of the test compounds (10 µM final concentration) was added into the wells. CTAB (Sigma) 10 µM (final concentration) or PMXB (Sigma) (final concentration of 0.4 µM) were used as positive controls, while water was used as negative control. The fluorescence of the wells was monitored using the same settings as above. The plots were created using OrginPro 2023. The experiment was performed twice and Figure 10 is a representative example of two independent experiments.

Compound	Outer membrane permeabilization, NPN fluorescence (in words)
CCCCCCCCCCCCCCCC[N+](C)(C)C.[Br-] [CTAB, reference compound]	cause a rapid increase in fluorescence
Polymyxin B [reference compound]	cause a rapid increase in fluorescence

Reference: article PMC11098465, “A comparative analysis of peptide-delivered antisense antibiotics using diverse nucleotide mimics” (RNA, 2024)
